In assay [1] the target is T1, Bromodomain-containing protein 9 (Homo sapiens, UniProt Q9H8M2).
T1 sequence (Q9H8M2 whole entry): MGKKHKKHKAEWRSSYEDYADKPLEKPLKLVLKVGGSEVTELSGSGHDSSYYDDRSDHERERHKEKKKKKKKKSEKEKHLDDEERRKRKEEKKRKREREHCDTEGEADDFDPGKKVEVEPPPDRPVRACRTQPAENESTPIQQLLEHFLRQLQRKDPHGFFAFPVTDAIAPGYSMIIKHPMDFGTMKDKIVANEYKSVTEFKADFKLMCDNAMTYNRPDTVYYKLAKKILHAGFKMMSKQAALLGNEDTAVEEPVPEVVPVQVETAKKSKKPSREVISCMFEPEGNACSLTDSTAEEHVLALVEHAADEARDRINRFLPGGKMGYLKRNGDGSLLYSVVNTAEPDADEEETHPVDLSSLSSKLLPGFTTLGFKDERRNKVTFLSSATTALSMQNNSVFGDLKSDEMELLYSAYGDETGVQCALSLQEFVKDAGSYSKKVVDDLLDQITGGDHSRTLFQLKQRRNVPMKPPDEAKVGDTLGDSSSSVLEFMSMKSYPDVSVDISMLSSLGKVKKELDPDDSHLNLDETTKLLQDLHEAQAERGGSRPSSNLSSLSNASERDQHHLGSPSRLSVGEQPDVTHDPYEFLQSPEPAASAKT
In words: Inhibition of BRD9 (unknown origin) by TR-FRET assay.

A short description of assay [2]: Inhibition of BRD8/BRD1 (unknown origin).
Assay [3] in a line: Inhibition of BRD4/BRD1 (unknown origin).
For assay [4], the target named is T2, Bromodomain-containing protein 1 (Homo sapiens, UniProt O95696).
T2 sequence (O95696 whole entry): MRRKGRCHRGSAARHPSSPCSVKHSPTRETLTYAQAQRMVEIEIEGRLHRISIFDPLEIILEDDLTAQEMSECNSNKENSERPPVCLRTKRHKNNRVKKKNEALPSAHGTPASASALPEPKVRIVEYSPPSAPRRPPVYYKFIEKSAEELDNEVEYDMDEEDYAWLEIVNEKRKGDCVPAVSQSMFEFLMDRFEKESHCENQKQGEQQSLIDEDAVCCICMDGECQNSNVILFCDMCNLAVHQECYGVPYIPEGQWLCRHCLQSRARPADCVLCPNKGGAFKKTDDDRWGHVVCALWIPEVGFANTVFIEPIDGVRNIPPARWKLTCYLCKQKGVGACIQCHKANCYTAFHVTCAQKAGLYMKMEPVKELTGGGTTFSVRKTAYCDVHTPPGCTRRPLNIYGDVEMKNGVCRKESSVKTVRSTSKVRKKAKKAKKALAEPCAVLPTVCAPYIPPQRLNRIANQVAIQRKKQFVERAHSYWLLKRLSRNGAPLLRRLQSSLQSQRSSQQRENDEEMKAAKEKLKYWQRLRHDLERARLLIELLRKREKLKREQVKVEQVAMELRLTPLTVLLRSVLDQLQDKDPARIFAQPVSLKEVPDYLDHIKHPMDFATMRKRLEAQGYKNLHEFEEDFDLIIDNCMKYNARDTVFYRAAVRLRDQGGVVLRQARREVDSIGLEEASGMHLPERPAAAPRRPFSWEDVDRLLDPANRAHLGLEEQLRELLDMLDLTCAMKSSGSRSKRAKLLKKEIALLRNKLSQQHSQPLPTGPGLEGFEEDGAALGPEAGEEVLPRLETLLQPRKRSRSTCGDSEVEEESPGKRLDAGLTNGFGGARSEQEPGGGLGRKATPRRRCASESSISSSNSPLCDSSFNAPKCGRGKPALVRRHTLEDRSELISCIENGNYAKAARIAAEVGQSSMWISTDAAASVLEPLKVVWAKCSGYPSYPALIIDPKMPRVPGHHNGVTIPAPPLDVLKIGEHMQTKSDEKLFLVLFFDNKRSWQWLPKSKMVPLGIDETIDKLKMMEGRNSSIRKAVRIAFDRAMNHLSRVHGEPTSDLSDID
In words: Inhibition of BRD1 (unknown origin).

A short description of assay [5]: Inhibition BRD9/BRD1 (unknown origin) by Alpha Screen assay.
Assay [6] can be described thus: Inhibition of BRD8/BRD1 (unknown origin) by Alpha Screen assay.

For the molecule `COc1cc(-c2cn(C)c(=O)c3cc(F)ccc23)c(OC)cc1CN(C)C`, the 50% inhibitory concentration (IC50) in assay [1] was 20 nM; in assay [2], 160 nM; in assay [3], greater than 10000 nM.

Regarding `COc1cc(CN(C)C)cc(OC)c1-c1cn(C)c(=O)c2cnccc12`, the IC50 in assay [1] is greater than 10000 nM; in assay [2], 80 nM; in assay [3], greater than 10000 nM.

With `COc1cc(-c2cn(C)c(=O)c3cnccc23)c(OC)cc1CN1CC(N)C1`, the IC50 is less than 10 nM in assay [1], 490 nM in assay [4] and 7400 nM in assay [3].

On to `COc1cc(CN(C)C)cc(OC)c1-c1cn(C)c(=O)c2cc(F)ccc12`, for which the IC50 in assay [5] came to 10000 nM; in assay [6], 12 nM.

(Values after ChEMBL document CHEMBL6083177, “Targeting bromodomian-containing protein 8 (BRD8): An advanced tool to interrogate BRD8” (Eur J Med Chem, 2024).)
